The results in this text go back to patent US10513523B2, “Imidazopyrazines and pyrazolopyrimidines and their use as AMPA receptor modulators” (Janssen Pharmaceutica NV, priority 2015, dated 2019).

The target of this experiment is GluA1o-γ8 (GRIA1o-CACNG8 fusion construct; TARP γ8 dependent AMPA receptor) (Homo sapiens (Human), UniProt P42261+Q8WXS5). The experiment is described as follows: Calcium flux assay (FLIPR), inhibition of glutamate response of GluA1o-γ8 channel. The format is cell-based. To be noted: HEK293 cells stably expressing GRIA1o-CACNG8 fusion; 15 μM glutamate; pIC50 = negative log of IC50 in molar; read-out: GluR1-γ8 (pIC50) (converted). In outline:
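Potency is the midpoint of a four-parameter logistic fit to control-normalized FLIPR calcium responses elicited by 15 μM glutamate. Stable HEK293 cells carried a fused GluA1o-γ8 construct and were preincubated with compound and calcium dye in pH 7.4 HEPES buffer.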
A general note: Calcium flux is commonly read through the fluorescence of an indicator in the cells.

Chain of GluA1o-γ8 (GRIA1o-CACNG8 fusion construct; TARP γ8 dependent AMPA receptor) (P42261 other isoform, or with tags, fused parts or gaps): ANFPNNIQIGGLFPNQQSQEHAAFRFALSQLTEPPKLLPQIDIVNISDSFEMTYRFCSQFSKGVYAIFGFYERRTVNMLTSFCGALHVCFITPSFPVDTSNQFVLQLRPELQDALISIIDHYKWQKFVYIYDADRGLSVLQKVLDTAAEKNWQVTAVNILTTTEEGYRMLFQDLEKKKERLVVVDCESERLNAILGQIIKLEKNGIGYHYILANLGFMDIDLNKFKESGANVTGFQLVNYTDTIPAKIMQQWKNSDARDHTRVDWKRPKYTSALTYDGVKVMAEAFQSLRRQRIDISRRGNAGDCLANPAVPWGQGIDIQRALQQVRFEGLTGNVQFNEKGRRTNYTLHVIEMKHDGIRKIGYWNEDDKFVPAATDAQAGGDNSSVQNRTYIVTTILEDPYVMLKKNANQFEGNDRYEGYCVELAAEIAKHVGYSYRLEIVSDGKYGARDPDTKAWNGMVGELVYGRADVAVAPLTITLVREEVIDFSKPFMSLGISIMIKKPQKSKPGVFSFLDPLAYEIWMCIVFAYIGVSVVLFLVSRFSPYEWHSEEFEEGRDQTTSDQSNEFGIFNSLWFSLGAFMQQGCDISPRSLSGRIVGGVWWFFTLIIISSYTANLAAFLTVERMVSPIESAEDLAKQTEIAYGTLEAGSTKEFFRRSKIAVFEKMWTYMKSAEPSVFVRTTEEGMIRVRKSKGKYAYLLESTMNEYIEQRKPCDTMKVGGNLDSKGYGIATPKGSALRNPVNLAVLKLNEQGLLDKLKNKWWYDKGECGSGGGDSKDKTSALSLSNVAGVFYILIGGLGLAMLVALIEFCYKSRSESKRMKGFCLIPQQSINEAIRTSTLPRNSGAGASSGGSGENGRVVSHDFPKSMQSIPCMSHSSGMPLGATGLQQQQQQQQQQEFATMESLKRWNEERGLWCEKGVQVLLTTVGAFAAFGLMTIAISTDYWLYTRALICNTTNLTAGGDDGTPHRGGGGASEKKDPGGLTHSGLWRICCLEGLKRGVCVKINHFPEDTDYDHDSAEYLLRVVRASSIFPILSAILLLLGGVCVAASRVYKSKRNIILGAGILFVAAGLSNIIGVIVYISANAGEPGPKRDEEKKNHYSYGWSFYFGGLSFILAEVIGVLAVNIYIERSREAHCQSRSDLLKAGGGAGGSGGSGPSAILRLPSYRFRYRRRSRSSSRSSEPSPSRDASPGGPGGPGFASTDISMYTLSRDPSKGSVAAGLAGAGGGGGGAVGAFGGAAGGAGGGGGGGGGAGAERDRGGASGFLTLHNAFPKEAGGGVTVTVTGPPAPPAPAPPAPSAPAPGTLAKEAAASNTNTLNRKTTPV

In the case of `O=C1Cc2cc(-c3c(-c4ccccc4)nn4cnc(C(F)(F)F)cc34)ccc2N1` [Example 222, 5-[2-Phenyl-5-(trifluoromethyl)pyrazolo[1,5-c]pyrimidin-3-yl]indolin-2-one], the IC50 was 12.6 nM. For `O=C1Cc2cc(-c3c(-c4ccccc4)nn4c(N5CC[C@@H](O)[C@H](F)C5)nccc34)ccc2N1` (relative stereo) [Example 193, trans-5-[7-(3-Fluoro-4-hydroxy-1-piperidyl)-2-phenyl-pyrazolo[1,5-c]pyrimidin-3-yl]indolin-2-one], the IC50 is 0.316 nM. Consider `O=C1CN(c2nccn3c(-c4ccc(O)cc4)c(-c4ccc(F)cc4)nc23)CCN1` [Example 27, 4-[2-(4-Fluorophenyl)-3-(4-hydroxyphenyl)imidazo[1,2-a]pyrazin-8-yl]piperazin-2-one], for which the IC50 is 3.16 nM. For `CC(=O)N1CCN(c2ncc(C)n3c(-c4ccc5c(c4)CC(=O)N5)c(Cc4ccccc4)nc23)CC1` [Example 114, 5-(8-(4-Acetylpiperazin-1-yl)-2-benzyl-5-methylimidazo[1,2-a]pyrazin-3-yl)indolin-2-one], the IC50 was 2 nM. For `Fc1ccc(-c2nc3c(N4CCOCC4)nccn3c2-c2ccc3[nH]cnc3c2)cc1` [Example 31, 4-[3-(1H-Benzimidazol-5-yl)-2-(4-fluorophenyl)imidazo[1,2-a]pyrazin-8-yl]morpholine], the IC50 is 631 nM. The result for `O=C1Cc2cc(-c3c(-c4ccccc4)nn4c(N5CC[C@@H](O)[C@@H](F)C5)nccc34)ccc2N1` (relative stereo) [Example 204, (cis)-5-[7-(3-Fluoro-4-hydroxy-1-piperidyl)-2-phenyl-pyrazolo[1,5-c]pyrimidin-3-yl]indolin-2-one] reads 1.26 nM; that for `O=C1Cc2cc(-c3c(-c4ccc(F)cc4)nc4c(N5CCO[C@@H](C(F)(F)F)C5)nccn34)ccc2N1` (single isomer, unassigned) [Example 48, (R*)-5-[2-(4-Fluorophenyl)-8-[2-(trifluoromethyl)morpholin-4-yl]imidazo[1,2-a]pyrazin-3-yl]indolin-2-one], 12.6 nM. As to `CC(=O)N1CCCN(c2nccn3c(-c4ccc(O)cc4)c(-c4ccc(Cl)cc4)nc23)CC1` [Example 92, 1-[4-[2-(4-Chlorophenyl)-3-(4-hydroxyphenyl)imidazo[1,2-a]pyrazin-8-yl]-1,4-diazepan-1-yl]ethanone], the IC50 is 25.1 nM. Take `CC(=O)N1CCN(c2nccn3c(-c4ccc(O)cc4)c(-c4ccc(Cl)cc4)nc23)CC1` [Example 94, 1-[4-[2-(4-Chlorophenyl)-3-(4-hydroxyphenyl)imidazo[1,2-a]pyrazin-8-yl]piperazin-1-yl]ethanone]: the IC50 was 3.16 nM. For `O=C1Cc2cc(-c3c(-c4ccccc4)nn4c(N5CCOCC5)ncc(Br)c34)ccc2N1` [Example 207, 5-(4-Bromo-7-morpholino-2-phenyl-pyrazolo[1,5-c]pyrimidin-3-yl)indolin-2-one], the IC50 is 0.398 nM.

With `CNc1nccn2c(-c3ccc4[nH]c(=O)[nH]c4c3)c(-c3ccc(F)cc3)nc12` [Example 104, 5-[2-(4-Fluorophenyl)-8-(methylamino)imidazo[1,2-a]pyrazin-3-yl]-1,3-dihydrobenzimidazol-2-one], the IC50 is 6.31 nM.

For `O=C1Cc2cc(-c3c(-c4ccc(F)cc4)nc4c(N5CCC(O)C(F)(F)C5)nccn34)ccc2N1` (stereo not shown) [Example 71, 5-[8-(3,3-Difluoro-4-hydroxy-1-piperidyl)-2-(4-fluorophenyl)imidazo[1,2-a]pyrazin-3-yl]indolin-2-one], the IC50 was 0.251 nM.

Regarding `O=C(Nc1ccccn1)c1nc2c(N3CCOCC3)nccn2c1-c1ccc2[nH]c(=O)[nH]c2c1` [Example 221, 8-Morpholino-3-(2-oxo-1,3-dihydrobenzimidazol-5-yl)-N-(2-pyridyl)imidazo[1,2-a]pyrazine-2-carboxamide], the IC50 is 31.6 nM. For `CC(C)(C)OC(=O)N1CCN(c2ncc(Br)n3c(-c4ccc5c(c4)CC(=O)N5)c(Cc4ccccc4)nc23)CC1` [Example 112, tert-Butyl 4-(2-benzyl-5-bromo-3-(2-oxoindolin-5-yl)imidazo[1,2-a]pyrazin-8-yl)piperazine-1-carboxylate], the IC50 was 0.794 nM. As for `O=C1Cc2cc(-c3c(-c4ccccc4)nn4c(N5CC(F)C5)nccc34)ccc2N1` [Example 200, 5-[7-(3-Fluoroazetidin-1-yl)-2-phenyl-pyrazolo[1,5-c]pyrimidin-3-yl]indolin-2-one], the IC50 was 3.16 nM. Regarding `Cc1cnc(N2CCOCC2)n2nc(C(C)C)c(-c3ccc4[nH]ncc4c3)c12` [Example 239, 4-[3-(1H-Indazol-5-yl)-2-isopropyl-4-methyl-pyrazolo[1,5-c]pyrimidin-7-yl]morpholine], the IC50 was 39.8 nM. Turning to `O=C1Cc2cc(-c3c(-c4ccc(F)cc4)nc4c(N5CC(F)C5)nccn34)ccc2N1` [Example 59, 5-[8-(3-Fluoroazetidin-1-yl)-2-(4-fluorophenyl)imidazo[1,2-a]pyrazin-3-yl]indolin-2-one], the IC50 was 0.501 nM.

For the molecule `O=C1Cc2cc(-c3c(-c4ccc(F)cc4)nc4c(N5CC(O)(C(F)(F)F)C5)nccn34)ccc2N1` [Example 69, 5-[2-(4-Fluorophenyl)-8-[3-hydroxy-3-(trifluoromethyl)azetidin-1-yl]imidazo[1,2-a]pyrazin-3-yl]indolin-2-one], the IC50 was 1 nM. For the molecule `O=C1Cc2cc(-c3c(-c4ccc(F)cc4)nn4c(N5CC(O)C5)nccc34)ccc2N1` [Example 179, 5-[2-(4-Fluorophenyl)-7-(3-hydroxyazetidin-1-yl)pyrazolo[1,5-c]pyrimidin-3-yl]indolin-2-one], the IC50 was 6.31 nM.

With `CC(C)c1nn2cnc(C(F)(F)F)cc2c1-c1ccc2c(c1)CC(=O)N2` [Example 227, 5-[2-Isopropyl-5-(trifluoromethyl)pyrazolo[1,5-c]pyrimidin-3-yl]indolin-2-one], the IC50 is 1580 nM.

In the case of `O=C1Cc2cc(-c3c(-c4ccccc4)nc4c(N5CCC(F)CC5)nccn34)ccc2N1` [Example 75, 5-[8-(4-Fluoro-1-piperidyl)-2-phenyl-imidazo[1,2-a]pyrazin-3-yl]indolin-2-one], the IC50 was 0.0631 nM. `O=S1(=O)Cc2cc(-c3c(-c4ccc(F)cc4)nc4c(N5CCOCC5)nccn34)ccc2N1` [Example 117, 5-[2-(4-Fluorophenyl)-8-morpholino-imidazo[1,2-a]pyrazin-3-yl]-1,3-dihydro-2,1-benzothiazole 2,2-dioxide]: the IC50 was 3.98 nM. The result for `O=C(NC1CC1)c1nc2c(N3CCOCC3)nccn2c1-c1ccc2[nH]c(=O)[nH]c2c1` [Example 146, N-Cyclopropyl-8-morpholino-3-(2-oxo-1,3-dihydrobenzimidazol-5-yl)imidazo[1,2-a]pyrazine-2-carboxamide] reads 316 nM; that for `O=c1[nH]c2ccc(-c3c(-c4ccc(F)cc4)nc4c(O)nccn34)cc2[nH]1` [Example 249, 5-[2-(4-Fluorophenyl)-8-hydroxy-imidazo[1,2-a]pyrazin-3-yl]-1,3-dihydrobenzimidazol-2-one], 1580 nM; that for `Fc1ccc(-c2nc3c(N4CCOCC4)nccn3c2-c2ccc3[nH]nnc3c2)cc1` [Example 30, 4-[3-(1H-Benzotriazol-5-yl)-2-(4-fluorophenyl)imidazo[1,2-a]pyrazin-8-yl]morpholine], 79.4 nM. For the molecule `O=C1Cc2cc(-c3c(-c4ccccc4)nc4c(N5CC6CC(C5)O6)nccn34)ccc2N1` [Example 79, 5-[8-(6-Oxa-3-azabicyclo[3.1.1]heptan-3-yl)-2-phenyl-imidazo[1,2-a]pyrazin-3-yl]indolin-2-one], the IC50 is 0.501 nM. The result for `CN(C)c1nccn2c(-c3ccc4c(c3)CC(=O)N4)c(C(=O)c3ccccc3)nc12` [Example 152, 5-[2-Benzoyl-8-(dimethylamino)imidazo[1,2-a]pyrazin-3-yl]indolin-2-one] reads 3.98 nM; that for `CC(=O)N1CCN(c2ncc(Br)n3c(-c4ccc5c(c4)CC(=O)N5)c(Cc4ccccc4)nc23)CC1` [Example 113, 5-(8-(4-Acetylpiperazin-1-yl)-2-benzyl-5-bromoimidazo[1,2-a]pyrazin-3-yl)indolin-2-one], 0.316 nM; that for `COC1CCN(c2nccn3c(-c4ccc5c(c4)CC(=O)N5)c(-c4ccc(F)cc4)nc23)CC1` [Example 72, 5-[2-(4-Fluorophenyl)-8-(4-methoxy-1-piperidyl)imidazo[1,2-a]pyrazin-3-yl]indolin-2-one], 0.126 nM. With `O=C1Cc2cc(-c3c(-c4ccc(F)cc4)nc4c(N5CC[C@@H](O)[C@H](F)C5)nccn34)ccc2N1` (relative stereo) [Example 70, (trans)-5-[8-(3-Fluoro-4-hydroxy-1-piperidyl)-2-(4-fluorophenyl)imidazo[1,2-a]pyrazin-3-yl]indolin-2-one], the IC50 was 0.158 nM.

With `CN(C)c1nccc2c(-c3ccc4c(c3)CC(=O)N4)c(-c3ccc(F)cc3)nn12` [Example 169, 5-[7-(Dimethylamino)-2-(4-fluorophenyl)pyrazolo[1,5-c]pyrimidin-3-yl]indolin-2-one], the IC50 is 1.58 nM. Regarding `O=C1Cc2cc(-c3c(-c4ccc(F)cc4)nc4c(N5CCC5)nccn34)ccc2N1` [Example 58, 5-[8-(Azetidin-1-yl)-2-(4-fluorophenyl)imidazo[1,2-a]pyrazin-3-yl]indolin-2-one], the IC50 is 1.58 nM.

Consider `O=C1Cc2cc(-c3c(-c4ccc(F)cc4)nc4c(N5CCCC(O)C5)nccn34)ccc2N1` (stereo not shown) [Example 54, 5-[2-(4-Fluorophenyl)-8-(3-hydroxy-1-piperidyl)imidazo[1,2-a]pyrazin-3-yl]indolin-2-one], for which the IC50 is 0.316 nM. Take `O=C1Cc2cc(-c3c(-c4ccccc4)nc4c(N5CC6(CC6)C5)nccn34)ccc2N1` [Example 80, 5-[8-(5-Azaspiro[2.3]hexan-5-yl)-2-phenyl-imidazo[1,2-a]pyrazin-3-yl]indolin-2-one]: the IC50 was 0.631 nM.
